The record followed here is paper PMC5931996 (Scientific Reports, 2018).

For data set [1], the system named is 5-HTP-induced head twitches in rats. As to the kind of experiment: 5-HTP-induced head twitch. The class given is in vivo, SD rats. The note with it: mean ± S.E.M. The protocol: SD rats (200–250 g, 8 animals/ group) were housed in the test room for at least 1 h before the experiment. […] Then, all animals were intraperitoneally injected with 0.9% saline or 5-HTP (320 mg/kg) 40 min before the test. The number of head twitches was recorded during a period of 40–70 min after intraperitoneal injection.

Data set [2] has as its system MK-801-treated rats. As to the kind of experiment: Morris water maze test, acute administration, MK-801-treated rats. The class given is in vivo, SD rats. The note with it: mean ± S.E.M. The protocol: SD rats (200–250 g, 8 animals/ group) were trained continuously until all rats found the platform within 30 sec, and the training time depended on the training results. […]. Then, all animals were intraperitoneal injections of 0.9% saline or MK-801 (0.2 mg/kg, i.p.) 30 minutes before the test. The test was started and the escape latency of rats was measured during the test in which platform was not withdrawn. A trial was deemed complete as soon as the rat had located platform or when 60 s had elapsed, whichever occurred first. The swimming activity of each rat was monitored by TopScan monitoring system. At the end of each trial, the maze was cleaned. The maze was rotated by clockwise after each training day to avoid potential intramaze cues (odour trails, etc.)[38].

The test system of data set [3] is MK-801-treated rats. As to the kind of experiment: Morris water maze test, subchronic administration, MK-801-treated rats. The data set is classed as in vivo, SD rats. The protocol:
The MWM test was started after the last injection. Each rat was trained in 4 trials per day for 5 consecutive days. The escape latency to find the submerged escape platform in the water maze was recorded with the TopScan monitoring system. Each training session lasted for a maximum of 60 s. If the escape latency exceeded 60 s, it was recorded as 60 s and the rat was manually guided to the platform. On day 6, the platform was removed and each rat was allowed to swim freely for 60 s.

In data set [4] the test system is MK-801-induced locomotor hyperactivity in rats. As to the kind of experiment: Inhibition of MK-801-induced hyperactivity. The data set is classed as in vivo, SD rats. The settings on record: mean ± S.E.M. The protocol:
[…]. […] Animals were returned to the activity chambers after the intraperitoneal injection, and locomotor activity as quantitated as the distance travelled (mm) was recorded for 10 to 20 minutes using the TopScan monitoring system. At the end of each trial, the faecal boli were cleaned to avoid the potential influence of intramaze cues (odour trails, etc.) on the rats[36].

For data set [5], the system named is MK-801-induced NOR deficit in rats. As to the kind of experiment: Novel object recognition (NOR) test. The settings on record: MK-801 0.3 mg/kg i.p. day 15–28 with vehicle (model group).
Procedure: Rats were testing after the last administration. Following a 10-min habituation session on the day of testing, each rat was placed in the NOR chamber (grey PVC boxes 60*60 cm wide and 45 cm deep) and exposed to two identical objects (Left and Right) for a period of 10 min (Acquisition Trial). The objects used in this experiment were rectangular plastic cases. […] Rats were then returned to their home cage for an inter-trial interval (ITI) of 1.5 h and the entire box was cleaned. Then one was replaced with an identical familiar copy and one was replaced with a novel object. Following the ITI, rats were returned to the apparatus and allowed to explore the familiar and novel objects in the test box for a 10-min retention trial (Retention Trial). All experiments were monitored by TopScan monitoring system[39].
Another data set has as its system plasma prolactin. As to the kind of experiment: Plasma prolactin levels in rats (ELISA). The class given is in vivo. The settings on record: 0.2 mg/kg for 28 days, mean ± S.E.M. The protocol:
[…]. Plasma prolactin levels were assessed using a commercially available Prolactin ELISA (Mouse/Rat) purchased from GenWay, according to the manufacturer’s instructions. Plasma TC and triglyceride levels were assessed using a Roche automatic biochemical analyser Cobas c 311.
For orientation: In an ELISA, binding on a coated surface is turned into a signal by an enzyme label.

A short description of data set [6]: Body weight of rats after 28 days of dosing. The class given is in vivo. The note with it: 0.2 mg/kg for 28 days, mean ± S.E.M.

`N[C@@H](Cc1c[nH]c2ccc(O)cc12)C(=O)O` [5-HTP, reference compound]: the “number of head twitches” value in data set [1] (5-HTP 320 mg/kg i.p. with vehicle (model group)) turned out to be 52.5 ± 2.57.
Take `O=C1CCc2ccc(OCCCCN3CCN(c4cccc(Cl)c4Cl)CC3)cc2N1` [Aripiprazole, reference compound]: the escape latency in the data set on MK-801-treated rats [2] ([…] oral 1 h before test, MK-801 0.2 mg/kg i.p.) turned out to be 21.71 ± 0.86 s; in the data set with MK-801-treated rats [3] ([…] oral for 28 days, MK-801 0.3 mg/kg i.p. day 15–28, mean ± S.E.M.), 31.83 ± 5.00 s. For the same compound, in data set [1] ([…] oral 1 h before test, 5-HTP 320 mg/kg i.p., 40–70 min after injection), the “number of head twitches” value was 31.5 ± 3.12. Moreover, in data set [4] ([…] oral 1 h before test, MK-801 0.3 mg/kg i.p.), the distance travelled amounted to 1957 ± 455.1 mm.
For `C[C@]12N[C@H](Cc3ccccc31)c1ccccc12` [MK-801, reference compound], the escape latency in the data set on MK-801-treated rats [2] (MK-801 0.2 mg/kg i.p. with vehicle (model group)) was 35.67 ± 4.05 s; in the data set with MK-801-treated rats [3] (MK-801 0.3 mg/kg i.p. day 15–28 with vehicle (model group), mean ± S.E.M.) it was 25.56 ± 4.36 s. Moreover, in data set [5], the “Discrimination Index (DI)” value was 0.51 ± 0.04. For the same compound, in data set [4] (MK-801 0.3 mg/kg i.p. with vehicle (model group)), the distance travelled turned out to be 4933 ± 275.6 mm.
Consider `Cc1nc2n(c(=O)c1CCN1CCC(c3noc4cc(F)ccc34)CC1)CCCC2` [Risperidone, reference compound], for which the escape latency in the data set with MK-801-treated rats [2] (0.2 mg/kg oral 1 h before test, MK-801 0.2 mg/kg i.p.) is 20.71 ± 2.18 s; with MK-801-treated rats [3] (0.2 mg/kg oral for 28 days, MK-801 0.3 mg/kg i.p. day 15–28, mean ± S.E.M.), 11.81 ± 3.06 s. In the data set with plasma prolactin, this compound returned a plasma prolactin level of 5.67 ± 0.51 ng/mL. The same compound yielded a body weights in data set [6] of 116.4 ± 10.51 g. The “number of head twitches” value in data set [1] (0.2 mg/kg oral 1 h before test, 5-HTP 320 mg/kg i.p., 40–70 min after injection) was 9 ± 1.73. The distance travelled in data set [4] (0.2 mg/kg oral 1 h before test, MK-801 0.3 mg/kg i.p.) amounted to 1886 ± 437.3 mm.
